In patent US20240368125A1, “NOVEL PYRAZINYL-TRIAZOLE COMPOUNDS AS PESTICIDES” (Bayer Aktiengesellschaft, priority 2021, published 2024):

Legend:
Type in all cases: in vivo
[1] = test system: Rhipicephalus (Boophilus) microplus larvae (strain Parkhurst, resistant against synthetic pyrethroids); test: Rhipicephalus (Boophilus) microplus in-vitro contact test, larval cattle tick; details: Rhipicephalus microplus; 1 μg/cm^2 (=100 g/ha), after 48 hours; read-out: efficacy (larvae dead or moribund)
Method in brief: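 Compound in acetone coated on glass tube inner walls; 900 ppm solution gives 5 μg/cm^2. Pyrethroid-resistant Parkhurst larvae (20-50 per tube) held at 27° C., 85% relative humidity; efficacy assessed after 48 h by scoring negative geotactic behavior after tapping larvae to tube bottom.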

[2] = test system: adult flies Musca domestica strain WHO-N; test: Musca domestica test (MUSCDO surface treatment & contact assay); details: 24 hours after contact, read-out: efficacy (mortality); for mortality at 20 mg/m2: surface concentration 20 mg/m^2, 30 min exposure; for mortality at 4 mg/m2: surface concentration 4 mg/m^2, 30 min exposure
Protocol: Musca domestica Test (MUSCDO Surface Treatment & Contact Assay
(§1) Solvent: Aceton+2000 ppm rapeseed oil methyl ester (RME)
In order to produce a sufficient, active ingredient containing solution it is necessary to solve the test compound in the solvent-mix (acetone at 2 mg/ml/RME 2000 ppm). This solution is pipetted onto a glazed tile and after evaporation of the acetone, adult flies of the species Musca domestica strain WHO-N are placed onto the dried surface. The exposure time is 30 minutes. Mortality in percent (%) is determined 24 hours after contact of the insects to the treated surface. 100% mortality means that all tested insects are dead, whereas 0% means that no insect died.

[3] = test system: larvae of the banded cucumber beetle (Diabrotica balteata); test: Diabrotica balteata spray test; details: Diabrotica balteata, 168 h; 100 g/ha (=32 μg/well), wheat seeds, after 7 days; read-out: efficacy (seedlings grown)
Method in brief: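 Efficacy was read 7 days after infesting each unit with 10–20 banded cucumber beetle larvae, as % of seedlings growing like untreated, uninfested controls. Before infestation, wheat seeds germinated 1 day on agar (5 per well) were sprayed with the active ingredient. The active was formulated in acetone/DMF and diluted in water containing emulsifier.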

[4] = test system: fall armyworm larvae (Spodoptera frugiperda); test: Spodoptera frugiperda spray test (SPODFR); details: 168 h; for mortality at 100 g/ha: in Zea mays
Method in brief: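 Compound in acetone/dimethylformamide, diluted with water containing 1000 ppm alkylarylpolyglycol ether emulsifier. Maize leaf sections sprayed, dried, then infested with fall armyworm larvae. Mortality (%) scored after 7 days, 100% meaning all caterpillars killed.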

[5] = test system: green peach aphid (Myzus persicae); test: Myzus persicae spray test (MYZUPE); details: in Brassica rapa, foliar, 120 h
Method in brief: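 Chinese cabbage leaf disks infested with all instars of M. persicae sprayed with compound (acetone/DMF solvent, water with 1000 ppm alkylarylpolyglycol ether emulsifier) at the desired concentration. Percent mortality determined after 5 days; 100% = all aphids killed.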

[6] = test system: adult brown dog ticks (Rhipicephalus sanguineus); test: Rhipicephalus sanguineus in-vitro contact test, adult brown dog ticks; details: Rhipicephalus sanguineus; 1 μg/cm^2 (=100 g/ha), after 48 hours; read-out: efficacy (ticks dead or moribund)
Method in brief: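 Efficacy is % of adult ticks dead or moribund 48 h after confinement at room temperature in tubes wall-coated from acetone (5 μg/cm² at 900 ppm). Scoring by heat challenge at 45-50 °C up to 5 min; immotile or uncoordinated ticks failing to climb count as affected.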

[7] = test system: adult Blattella germanica strain PAULINIA; test: Blattella germanica test (BLTTGE surface treatment & contact assay); details: 24 hours after contact, read-out: efficacy (mortality); for mortality at 20 mg/m2: surface concentration 20 mg/m^2, 30 min exposure; for mortality at 4 mg/m2: surface concentration 4 mg/m^2, 30 min exposure
Protocol: Blattella germanica Test (BLTTGE Surface Treatment & Contact Assay
as §1
In order to produce a sufficient, active ingredient containing solution it is necessary to solve the test compound in the solvent-mix (acetone at 2 mg/ml/RME 2000 ppm). This solution is pipetted onto a glazed tile and after evaporation of the acetone, adult animals of the species Blattella germanica strain PAULINIA are placed onto the dried surface. The exposure time is 30 minutes.
Mortality in percent (%) is determined 24 hours after contact of the insects to the treated surface. 100% mortality means that all tested insects are dead, whereas 0% means that no insect died.

[8] = test system: larvae of the southern green stink bug (Nezara viridula); test: Nezara viridula spray test; details: Nezara viridula, in Hordeum vulgare, 96 h
Method in brief: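 Barley plants sprayed with compound in acetone/DMF diluted in water with 1000 ppm alkylarylpolyglycol ether emulsifier, then infested with N. viridula larvae. Mortality (%) scored after 4 days; 100% means all bugs killed.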

## C[C@H](NC(=O)c1cc(OC(F)(F)F)cc(C2CC2)c1)c1ncnn1-c1cnc(C(=O)N(C)C)cn1 [Example I-002]
[1]
  pest or weed control at 1 µg/cm2: 100%
[2]
  mortality at 20 mg/m2: 80 to 100%
[3]
  pest or weed control at 32 µg/disc, 100 g/ha: 100%
[4]; SPODFR, 4 g ai/ha, 7 dat, read-out: % Efficacy
  Emax at 4 g/ha: 100%
[4]; SPODFR, 20 g ai/ha, 7 dat, read-out: % Efficacy
  Emax at 20 g/ha: 100%
[4]; SPODFR, 100 g ai/ha, 7 dat, read-out: % Efficacy
  Emax at 100 g/ha: 100%
[4]
  mortality at 100 g/ha: 100%
[5]
  mortality at 100 g/ha: 90%
[6]
  pest or weed control at 1 µg/cm2, 100 g/ha: 100%
[7]
  mortality at 20 mg/m2: 80 to 100%

## C[C@H](NC(=O)c1cc(C(F)(F)F)cc(C(F)(F)F)c1)c1ncnn1-c1cnc(C(=O)N(C)C2CC2)cn1 [Example I-007]
[1]
  pest or weed control at 1 µg/cm2: 100%
[2]
  mortality at 4 mg/m2: 80 to 100%
  mortality at 20 mg/m2: 80 to 100%
[3]
  pest or weed control at 32 µg/disc, 100 g/ha: 100%
[4]
  mortality at 100 g/ha: 100%
[5]
  mortality at 100 g/ha: 90%
[6]
  pest or weed control at 1 µg/cm2, 100 g/ha: 100%
[7]
  mortality at 4 mg/m2: 80 to 100%
  mortality at 20 mg/m2: 80 to 100%

## C[C@H](NC(=O)c1cc(C(F)(F)F)cc(C(F)(F)F)c1)c1ncnn1-c1cnc(C(=O)N(C)CC2CC2)cn1 [Example I-008]
[1]
  pest or weed control at 1 µg/cm2: 100%
[2]
  mortality at 4 mg/m2: 80 to 100%
  mortality at 20 mg/m2: 80 to 100%
[3]
  pest or weed control at 32 µg/disc, 100 g/ha: 100%
[4]
  mortality at 100 g/ha: 100%
[5]
  mortality at 100 g/ha: 90%
[6]
  pest or weed control at 1 µg/cm2, 100 g/ha: 100%
[8]
  mortality at 500 g/ha: 100%
[7]
  mortality at 4 mg/m2: 80 to 100%
  mortality at 20 mg/m2: 80 to 100%

## CNC(=O)c1cnc(-n2ncnc2[C@H](C)NC(=O)c2cc(C(F)(F)F)cc(C(F)(F)F)c2)cn1 [Example I-009]
[1]
  pest or weed control at 1 µg/cm2: 100%
[2]
  mortality at 4 mg/m2: 80 to 100%
  mortality at 20 mg/m2: 80 to 100%
[4]
  mortality at 100 g/ha: 100%
[5]
  mortality at 100 g/ha: 90%
[6]
  pest or weed control at 1 µg/cm2, 100 g/ha: 100%
[8]
  mortality at 500 g/ha: 100%
[7]
  mortality at 4 mg/m2: 80 to 100%
  mortality at 20 mg/m2: 80 to 100%

## CNC(=O)c1cnc(-n2ncnc2[C@H](C)NC(=O)c2cc(OC(F)(F)F)cc(C3CC3)c2)cn1 [Example I-021]
[1]
  pest or weed control at 1 µg/cm2: 100%
[2]
  mortality at 4 mg/m2: 80 to 100%
  mortality at 20 mg/m2: 80 to 100%
[3]
  pest or weed control at 32 µg/disc, 100 g/ha: 100%
[4]
  mortality at 100 g/ha: 100%
[5]
  mortality at 100 g/ha: 90%
[6]
  pest or weed control at 1 µg/cm2, 100 g/ha: 100%
[8]
  mortality at 500 g/ha: 100%
[7]
  mortality at 4 mg/m2: 80 to 100%
  mortality at 20 mg/m2: 80 to 100%
